Measured values: ChEMBL document CHEMBL5252649, “CRBN ligand expansion for hematopoietic prostaglandin D2 synthase (H-PGDS) targeting PROTAC design and their in vitro ADME profiles” (Bioorg Med Chem, 2023)
≈ marks a conversion by molar mass, not a printed value.

Legend:
[1] = Apparent permeability coefficient, Papp of the compound at pH 7.4 incubated for 4 hrs by UPLC/MS/MS analysis; assay type: ADME; conditions: for Papp at 4 h: not told, pH 7.4
[2] = Metabolic stability of the compound in human liver microsomes incubated for 10 mins in presence of NADPH by UPLC/MS/MS analysis; assay type: ADME, Microsome; conditions: read-out: Stability
[3] = Lipophilicity, logD of the compound by UPLC analysis; assay type: physicochemical; conditions: octanol/water
[4] = Solubility of the compound in PBS buffer at 100 uM at pH 7.4 by UPLC/MS/MS analysis; assay type: physicochemical
[5] = Metabolic stability of the compound in human liver microsomes incubated for 60 mins in presence of NADPH by UPLC/MS/MS analysis; assay type: ADME, Microsome; conditions: read-out: Stability
[6] = biological target: Protein cereblon/Hematopoietic prostaglandin D synthase (Homo sapiens, UniProt O60760+Q96SW2); test: PROTAC activity at CRBN/H-PGDS in human KU812 cells assessed as induction of H-PGDS degradation by measuring decrease in H-PGDS protein expression incubated for 24 hrs by western blot analysis; assay type: cell-based; conditions: for Activity: KU812 cell line; for DC50: ku812 cell line

Row | Papp at 4 h [1] | remaining at 10 min [2] | logD [3] | solubility at 100 µM [4] | remaining at 1 h [5] | Activity [6] | DC50 [6] | Papp ([1]; pH 7.4, 4 h) | SMILES
1 | 0.07 ×10⁻⁶ cm/s | 89% | 3.39 | 1.12 µM (≈ 0.832 µg/mL) | 75% |  | 0.036 nM |  | O=C1CCC(N2C(=O)c3cccc(N4CCN(C(=O)C5CCN(c6ccc(NC(=O)c7cnc(Oc8ccccc8)nc7)cc6)CC5)CC4)c3C2=O)C(=O)N1 (stereo not drawn)
2 | 0.009 ×10⁻⁶ cm/s | 90% | 2.65 | 2.91 µM (≈ 2.22 µg/mL) | 72% |  | 0.02 nM |  | Cn1cccc1C(=O)N1CCN(C(=O)Nc2ccc(N3CCC(C(=O)N4CCN(c5ccc6c(c5)C(=O)N(C5CCC(=O)NC5=O)C6=O)CC4)CC3)cc2)CC1 (stereo not drawn)
3 |  | 93% | 2.79 | 37.4 µM (≈ 28.6 µg/mL) | 79% |  | 0.02 nM | 0.0007 ×10⁻⁶ cm/s | Cn1cccc1C(=O)N1CCN(C(=O)Nc2ccc(N3CCC(C(=O)N4CCN(c5cccc6c5C(=O)N(C5CCC(=O)NC5=O)C6=O)CC4)CC3)cc2)CC1 (stereo not drawn)

The next lines start with the compound.

Row | SMILES | Papp at 4 h [1] | remaining at 10 min [2] | logD [3] | solubility at 100 µM [4] | remaining at 1 h [5] | Activity [6] | DC50 [6] | Papp ([1]; pH 7.4, 4 h)
4 | Cn1cccc1C(=O)N1CCN(C(=O)Nc2ccc(N3CCC(C(=O)N4CCOCC4)CC3)cc2)CC1 | 0.21 ×10⁻⁶ cm/s | 92% | 2.25 | ≥ 95 µM | 83% |  |  | 
5 | O=C1CCC(c2ccc(NCC(=O)N3CCN(C(=O)C4CCN(c5ccc(NC(=O)c6cnc(Oc7ccccc7)nc6)cc5)CC4)CC3)cc2)C(=O)N1 (stereo not drawn) | 0.2 ×10⁻⁶ cm/s | 89% | 3 | 7 µM (≈ 5.12 µg/mL) | 78% | Dose-Dependent Effect | 0.104 nM | 
6 | O=C1CCC(N2C(=O)c3ccc(N4CCN(C(=O)C5CCN(c6ccc(NC(=O)c7cnc(Oc8ccccc8)nc7)cc6)CC5)CC4)cc3C2=O)C(=O)N1 (stereo not drawn) | 0.049 ×10⁻⁶ cm/s | 93% | 3.33 | < 0.5 µM | 80% |  | 0.175 nM | 
7 | O=C1CCC(N2C(=O)c3cc(F)c(N4CCN(C(=O)C5CCN(c6ccc(NC(=O)c7cnc(Oc8ccccc8)nc7)cc6)CC5)CC4)cc3C2=O)C(=O)N1 (stereo not drawn) | 0.007 ×10⁻⁶ cm/s | 93% | 3.5 | < 0.5 µM | 69% | Dose-Dependent Effect | 0.147 nM | 
8 | O=C(Nc1ccc(N2CCC(C(=O)N3CCOCC3)CC2)cc1)c1cnc(Oc2ccccc2)nc1 | 3.01 ×10⁻⁶ cm/s | 96% | 3.06 | 3.17 µM (≈ 1.55 µg/mL) | 80% |  |  | 
